Values joined by “and” are separate entries in the source; they are usually repeats but may differ in a detail not shown here. Equal values may be shown once. Numbers after ± are expanded uncertainties.
Legend:
[1] = for speed of sound: 100 kPa, Sing-around technique in a fixed-path interferometer; for speed of sound / viscosity / mass density: Liquid; for viscosity / mass density: 101 kPa; for viscosity: Falling or rolling sphere viscometry; for mass density: Vibrating tube method; for surface tension liquid-gas: 294.4 K, Pendant drop shape
[2] = xn = mol fraction of the nth substance listed; conditions: x1 = 1; for speed of sound: 100 kPa, Sing-around technique in a fixed-path interferometer; for speed of sound / viscosity / mass density: Liquid; for viscosity / mass density: 101 kPa; for viscosity: Falling or rolling sphere viscometry; for mass density: Vibrating tube method; for surface tension liquid-gas: 294.4 K, Pendant drop shape

SMILES: CCc1ccccc1 [ethylbenzene]
- speed of sound ([1]; 293.15 K): 1339.7 ± 0.7 m/s
- viscosity ([1]; 293.15 K): 0.67 ± 0.01 mPa·s
- mass density ([1]; 293.15 K): 866.95 ± 0.31 kg/m3
- surface tension liquid-gas [1]: 29.2 ± 0.4 mN/m
- speed of sound ([1]; 303.15 K): 1298.1 ± 0.7 m/s
- viscosity ([1]; 303.15 K): 0.59 ± 0.01 mPa·s
- mass density ([1]; 303.15 K): 858.15 ± 0.31 kg/m3
- speed of sound ([1]; 313.15 K): 1256.9 ± 0.7 m/s
- mass density ([1]; 313.15 K): 849.29 ± 0.31 kg/m3
- speed of sound ([1]; 323.15 K): 1216.4 ± 0.7 m/s
- viscosity ([1]; 323.15 K): 0.48 ± 0.01 mPa·s
- mass density ([1]; 323.15 K): 840.38 ± 0.31 kg/m3
- speed of sound ([1]; 333.15 K): 1176.4 ± 0.7 m/s
- viscosity ([1]; 333.15 K): 0.44 ± 0.01 mPa·s
- mass density ([1]; 333.15 K): 831.4 ± 0.32 kg/m3
- viscosity ([1]; 343.15 K): 0.4 ± 0.01 mPa·s
- mass density ([1]; 343.15 K): 822.3 ± 0.3 kg/m3
- viscosity ([1]; 353.15 K): 0.36 ± 0.01 mPa·s
- mass density ([1]; 353.15 K): 813.1 ± 0.3 kg/m3
- viscosity ([1]; 363.15 K): 0.33 ± 0.01 mPa·s
- mass density ([1]; 363.15 K): 803.7 ± 0.3 kg/m3
- viscosity ([1]; 373.15 K): 0.31 ± 0.01 mPa·s
- mass density ([1]; 373.15 K): 794.2 ± 0.3 kg/m3

SMILES: CCc1ccccc1 [ethylbenzene] + CCCCCCCCCCCCCCCC
- speed of sound ([2]; 293.15 K): 1339.7 ± 0.7 m/s
- viscosity ([2]; 293.15 K): 0.67 ± 0.01 mPa·s
- mass density ([2]; 293.15 K): 866.95 ± 0.31 kg/m3
- surface tension liquid-gas [2]: 29.2 ± 0.4 mN/m
- speed of sound ([2]; 303.15 K): 1298.1 ± 0.7 m/s
- viscosity ([2]; 303.15 K): 0.59 ± 0.01 mPa·s
- mass density ([2]; 303.15 K): 858.15 ± 0.31 kg/m3
- speed of sound ([2]; 313.15 K): 1256.9 ± 0.7 m/s
- mass density ([2]; 313.15 K): 849.29 ± 0.31 kg/m3
- speed of sound ([2]; 323.15 K): 1216.4 ± 0.7 m/s
- viscosity ([2]; 323.15 K): 0.48 ± 0.01 mPa·s
- mass density ([2]; 323.15 K): 840.38 ± 0.31 kg/m3
- speed of sound ([2]; 333.15 K): 1176.4 ± 0.7 m/s
- viscosity ([2]; 333.15 K): 0.44 ± 0.01 mPa·s
- mass density ([2]; 333.15 K): 831.4 ± 0.32 kg/m3
- viscosity ([2]; 343.15 K): 0.4 ± 0.01 mPa·s
- mass density ([2]; 343.15 K): 822.3 ± 0.3 kg/m3
- viscosity ([2]; 353.15 K): 0.36 ± 0.01 mPa·s
- mass density ([2]; 353.15 K): 813.1 ± 0.3 kg/m3
- viscosity ([2]; 363.15 K): 0.33 ± 0.01 mPa·s
- mass density ([2]; 363.15 K): 803.7 ± 0.3 kg/m3
- viscosity ([2]; 373.15 K): 0.31 ± 0.01 mPa·s
- mass density ([2]; 373.15 K): 794.2 ± 0.3 kg/m3

SMILES: CCCCCCCCCCCCCCCC [hexadecane]
- speed of sound ([1]; 293.15 K): 1357.3 ± 0.9 m/s
- viscosity ([1]; 293.15 K): 3.44 ± 0.03 mPa·s
- mass density ([1]; 293.15 K): 773.49 ± 0.33 kg/m3
- surface tension liquid-gas [1]: 27.3 ± 0.4 mN/m
- speed of sound ([1]; 303.15 K): 1320 ± 0.9 m/s
- viscosity ([1]; 303.15 K): 2.72 ± 0.02 mPa·s
- mass density ([1]; 303.15 K): 766.55 ± 0.34 kg/m3
- speed of sound ([1]; 313.15 K): 1283.3 ± 0.9 m/s
- mass density ([1]; 313.15 K): 759.63 ± 0.34 kg/m3
- speed of sound ([1]; 323.15 K): 1247.3 ± 0.9 m/s
- viscosity ([1]; 323.15 K): 1.82 ± 0.02 mPa·s
- mass density ([1]; 323.15 K): 752.71 ± 0.34 kg/m3
- speed of sound ([1]; 333.15 K): 1212 ± 0.9 m/s
- viscosity ([1]; 333.15 K): 1.54 ± 0.02 mPa·s and 1.53 ± 0.02 mPa·s
- mass density ([1]; 333.15 K): 745.79 ± 0.34 kg/m3
- viscosity ([1]; 343.15 K): 1.31 ± 0.02 mPa·s
- mass density ([1]; 343.15 K): 738.9 ± 0.3 kg/m3
- viscosity ([1]; 353.15 K): 1.13 ± 0.01 mPa·s
- mass density ([1]; 353.15 K): 731.8 ± 0.3 kg/m3
- viscosity ([1]; 363.15 K): 0.99 ± 0.01 mPa·s
- mass density ([1]; 363.15 K): 724.7 ± 0.3 kg/m3
- viscosity ([1]; 373.15 K): 0.87 ± 0.01 mPa·s
- mass density ([1]; 373.15 K): 717.5 ± 0.3 kg/m3

SMILES: Cc1ccccc1 [toluene]
- speed of sound ([1]; 293.15 K): 1326.8 ± 0.8 m/s
- viscosity ([1]; 293.15 K): 0.59 ± 0.01 mPa·s
- mass density ([1]; 293.15 K): 866.84 ± 0.31 kg/m3
- surface tension liquid-gas [1]: 28.4 ± 0.4 mN/m
- speed of sound ([1]; 303.15 K): 1283.7 ± 0.7 m/s
- viscosity ([1]; 303.15 K): 0.52 ± 0.01 mPa·s
- mass density ([1]; 303.15 K): 857.53 ± 0.31 kg/m3
- speed of sound ([1]; 313.15 K): 1241.1 ± 0.7 m/s
- mass density ([1]; 313.15 K): 848.14 ± 0.32 kg/m3
- speed of sound ([1]; 323.15 K): 1199 ± 0.7 m/s
- viscosity ([1]; 323.15 K): 0.42 ± 0.01 mPa·s
- mass density ([1]; 323.15 K): 838.7 ± 0.32 kg/m3
- speed of sound ([1]; 333.15 K): 1157.6 ± 0.7 m/s
- viscosity ([1]; 333.15 K): 0.38 ± 0.01 mPa·s
- mass density ([1]; 333.15 K): 829.16 ± 0.32 kg/m3
- viscosity ([1]; 343.15 K): 0.35 ± 0.01 mPa·s
- mass density ([1]; 343.15 K): 819.6 ± 0.3 kg/m3
- viscosity ([1]; 353.15 K): 0.32 ± 0.01 mPa·s
- mass density ([1]; 353.15 K): 809.7 ± 0.3 kg/m3
- viscosity ([1]; 363.15 K): 0.27 ± 0.01 mPa·s
- mass density ([1]; 363.15 K): 799.7 ± 0.3 kg/m3

SMILES: Cc1ccccc1 [toluene] + CCCCCCCCCCCCCCCC
- speed of sound ([2]; 293.15 K): 1326.8 ± 0.8 m/s
- viscosity ([2]; 293.15 K): 0.59 ± 0.01 mPa·s
- mass density ([2]; 293.15 K): 866.84 ± 0.31 kg/m3
- surface tension liquid-gas [2]: 28.4 ± 0.4 mN/m
- speed of sound ([2]; 303.15 K): 1283.7 ± 0.7 m/s
- viscosity ([2]; 303.15 K): 0.52 ± 0.01 mPa·s
- mass density ([2]; 303.15 K): 857.53 ± 0.31 kg/m3
- speed of sound ([2]; 313.15 K): 1241.1 ± 0.7 m/s
- mass density ([2]; 313.15 K): 848.14 ± 0.32 kg/m3
- speed of sound ([2]; 323.15 K): 1199 ± 0.7 m/s
- viscosity ([2]; 323.15 K): 0.42 ± 0.01 mPa·s
- mass density ([2]; 323.15 K): 838.7 ± 0.32 kg/m3
- speed of sound ([2]; 333.15 K): 1157.6 ± 0.7 m/s
- viscosity ([2]; 333.15 K): 0.38 ± 0.01 mPa·s
- mass density ([2]; 333.15 K): 829.16 ± 0.32 kg/m3
- viscosity ([2]; 343.15 K): 0.35 ± 0.01 mPa·s
- mass density ([2]; 343.15 K): 819.6 ± 0.3 kg/m3
- viscosity ([2]; 353.15 K): 0.32 ± 0.01 mPa·s
- mass density ([2]; 353.15 K): 809.7 ± 0.3 kg/m3
- viscosity ([2]; 363.15 K): 0.27 ± 0.01 mPa·s
- mass density ([2]; 363.15 K): 799.7 ± 0.3 kg/m3
